This is an account of results in US20030187003A1, “Pharmaceutical compositions and method for the treatment of retroviral infections” (priority 2000, published 2003).

Data set [1] deals with SIV (MAC251). Description: inhibition of virus-induced cytopathicity in MT-4 cells, SIV (MAC251). In kind it is cell-based, Simian immunodeficiency virus. Conditions: Simian immunodeficiency virus, MT4, 120 h, read-out: EC50 SIV MAC251. On the technique in general: Cytopathic effects are the visible damage that an infection or toxin causes in cultured cells.
Data set [2] is described as follows: cytotoxicity, viability of mock-infected cells. In kind it is cell-based. Conditions: human, viability of mock-infected MT-4 cells. As for the experimental part:
Cytotoxicity of these compounds was determined in parallel by measuring the viability of mock-infected MT-4 or C8166 cells 5 days post-infection. The antiviral activity and cytotoxicity data, including average values and standard deviations for at least two separate experiments, are depicted in Table 2, wherein: CC50 represents the 50% cytotoxic concentration, i.e. the concentration that reduces by 50% the viability of MT-4 cells.

For data set [3], the system named is HIV-1 NL43/DS5000. Description: microbe, parasite or virus in culture. The class given is cell-based.
For data set [4], the system named is HIV-1 L2. In kind it is cell-based.
The subject of data set [5] is HIV-1-derived vectors pseudotyped with the VSV-G envelope. Description: microbe, parasite or virus in culture. The class given is cell-based. The settings on record: Human immunodeficiency virus 1, HEK-293T, read-out: EC50 inhibition of transduction.
The target of data set [6] is T1, integrase (Human immunodeficiency virus type 1 group M subtype B, UniProt P04585).
T1 construct: encoding HIV-1 IN (strain HTLV III); made in house; host or cells: E. coli PC1 (BL21(DE3)(pLysS) ΔendA::TcR)
Description: kinetic cleavage assay, conversion of initial stable complex into cleaved product. The class given is biochemical, HIV-1. Conditions: in the presence of 50 μM compound, added after preincubation with dextran sulfate. How it is done:
When dextran sulfate with a molecular weight of 5,000 was added at a final concentration of 0.3 μM, further binding of integrase to the oligonucleotide was blocked. At several periods of time, 5 μl aliquots were taken and the reaction was stopped using 5 μl formamide loading buffer (having the same composition as above). The rate constant for the conversion of ISC into the cleaved product can be calculated using the formula: A-Be^−kt. In order to examine the inhibitory effect of compound H on 3′-processing, we repeated the same experiment in the presence of 50 μM compound (added after preincubation, together with dextran sulfate) and compared the rate constants: In the absence of compound H, it was calculated at 0.152±0.038 min^−1 in its presence at 0.147±0.025 min^−1. This quite similar value rules out that compound H directly affects the catalysis of 3′-processing.

Data set [7] addresses T2, HIV-1 integrase (Human immunodeficiency virus type 1 group M subtype B, UniProt P04585).
T2 construct: HIV-1 integrase (100 μl of a 33 μM solution)
The experiment in a line: HIV-1 integrase binding assay, biosensor (BIAcore). Conditions: preincubation of integrase with 93 μM compound, 37° C. How it is done:
Binding experiments were carried out using biosensor technology on BlAcore2000 (Biacore) and sensor chips SA™ with pre-immobilized streptavidin. The binding experiment was carried out at 37° C. following the procedures of the manufacturer. The binding buffer B (20 mM HEPES at pH 7.5) contained 50 mM NaCI, 10 mM MgCl2 and 5 mM DTT. First, the 3′-biotinylated oligonucleotide 5′-[…]-3′ was bound to the sensor chip. Subsequently, the complementary 35-mer 5′-[…]-3′ was hybridized to the captured oligonucleotide, resulting in an integrase recognition sequence at the free end. HIV-1 integrase (100 μl of a 33 μM solution) diluted 10-fold in dilution buffer (10 mM Tris.HCl, pH7.5/750 mM NaCl/10% glycerol/1 mM β-mercaptoethanol) and another 10-fold in buffer B, was injected at a final concentration of 330 nM with a flow rate of 10 μl/minute passing first a blank channel and then the channel with the specific oligonucleotide. A specific adsorption in the blank channel was subtracted.

For data set [8], the target named is recombinant His-tagged HIV-1 integrase (Human immunodeficiency virus type 1 group M subtype B, UniProt P04585). The experiment in a line: HIV-1 integrase overall integration assay, oligonucleotide-based.
Description: Reactions were started by the addition of the enzyme. Inhibitors were incubated shortly with the reaction components before the addition of integrase. Reactions were allowed to proceed at 37° C. for 7 minutes and stopped by the addition of formamide loading buffer (95% formamide, 30 mM ethylenediamine tetraacetic acid, 0.1% xylene cyanol, 0.1% bromophenol blue, 0.1% sodium dilaurylsulfate SDS). In the overall integration assay, this reaction was allowed to proceed for 60 minutes before the addition of a formamide dye.

A word on the EC50: it is the concentration at which the effect is half-maximal. A word on the CC50: it is the concentration giving 50% cytotoxicity. Read a low CC50 as greater toxicity to the cells. A word on the IC50: it is the point on the concentration scale where inhibition reaches its midpoint. `O=[N+]([O-])c1ccc(C2c3c(O)nc(S)nc3Oc3nc(S)nc(O)c32)cc1` [compound H, 5-(4-nitrophenyl)-2,8-dithiol-4,6-dihydroxy-5H-pyrano[2,3-d:6,5-d′]dipyrimidine]: the EC50 worked out at 5.5 ± 0.9 µM in data set [1]; 19.4 ± 1.4 µM in data set [3] (Human immunodeficiency virus 1, NL43); 6 ± 2.3 µM in data set [4] (Human immunodeficiency virus 1); 17 µM in data set [5]. For the same compound, in data set [2], the midpoint of cytotoxicity, the CC50 at 5 days, lay at 121 µM. The “fold increase in EC50” value is on record as 1.3 in data set [3] (NL43/DS5000 versus wild type strain NL4.3) and 1.6 in data set [4] (L2 versus wild type strain L1). For the same compound, in data set [3] (in words), the “activity against HIV-1 strain resistant to dextran sulfate” value is “active”. Moreover, the “rate constant for the conversion of ISC into the cleaved product” value in data set [6] came to 0.147 ± 0.025 min⁻¹. In data set [7], the “binding of integrase to the DNA” value was “completely abolished”. Moreover, in data set [8], the IC50 came out at 0.3 ± 0.2 µM. For the same compound, the “inhibition of the overall integration reaction” value in data set [8] (in words) was “inhibited”.
